Target: α-glucosidase
Assay: α-glucosidase inhibitor screening assay (PNPG substrate, absorbance at 405 nm)
Type: biochemical
Settings: means ± SD (n = 3), phosphate buffer pH 6.8, 37 °C, 1 h, Reed and Muench method, read-out: IC50 (one-half maximal inhibitory concentration to α-glucosidase)
Experimental: The α-glucosidase inhibitor screening assay was conducted as reported previously and slightly modified. […] 4-Nitrophenol-α-D-glucopyranoside (PNPG) was used as an enzyme inhibitor screening model. α-glucosidase solution (0.025 U·mL^−1), PNPG (0.1 M), phosphate buffer (pH 6.8) and test samples (50 μM) were incubated in 96-well plates at 37 °C for 1 h. A microplate reader was recorded by the absorbance at 405 nm. No enzyme as the blank readings were subtracted from each well and compared to the control. In this assay, all reactions were performed in triplicate. The α-glucosidase inhibitory activity was presented as inhibition ratio. The formula to calculate the inhibition rate is as follows: inhibition rate (%) = (1 ‒ OD experimental 405 nm/OD […] 405 nm) × 100%, and IC50 values were calculated according to the Reed and Muench method.

IC50 | Compound
100 ± 10 nM | O=C(OC[C@H]1O[C@@H](OC(=O)c2cc(O)c(O)c(O)c2)[C@H](OC(=O)c2cc(O)c(O)c(O)c2)[C@@H](OC(=O)c2cc(O)c(O)c(O)c2)[C@@H]1OC(=O)c1cc(O)c(O)c(O)c1)c1cc(O)c(O)c(O)c1 [Compound 12, 1,2,3,4,6-penta-O-galloyl-β-D-glucopyranose]
2280 ± 70 nM | O=C(OC[C@H]1O[C@@H](OC(=O)c2cc(O)c(O)c(O)c2)[C@H](O)[C@@H](OC(=O)c2cc(O)c(O)c(O)c2)[C@@H]1O)c1cc(O)c(O)c(O)c1 [Compound 11, 1,3,6-tri-O-galloyl-β-D-glucopyranose]
3120 ± 230 nM | O=C(O[C@@H]1O[C@@H]2COC(=O)c3cc(O)c(O)c(O)c3-c3c(cc(O)c(O)c3O)C(=O)O[C@H]([C@H]1O)[C@@H]2O)c1cc(O)c(O)c(O)c1 [Compound 13, corilagin]

Compound | IC50
O=C1O[C@H]2[C@@H]3OC(=O)c4cc(O)c(O)c(O)c4-c4c(O)c(O)c5oc(=O)c6c(c(O)c(O)c7oc(=O)c4c5c76)-c4c(cc(O)c(O)c4O)C(=O)OC[C@H]3OC(O)[C@@H]2OC(=O)c2cc(O)c(O)c(O)c2-c2c1cc(O)c(O)c2O (mixture of isomers) [Compound 10, punicalagin] | 270 ± 10 nM

Reference: article PMC8390638, “Termitomenins F and G, Two New Lignan Glucosides from Terminalia chebula var. tomentella (Kurz) C. B. Clarke” (Natural Products and Bioprospecting, 2021)
